Target: human GABA A α5β3γ2 receptor (Homo sapiens (Human), UniProt P18507+P31644)
Experiment: [3H]flumazenil competition radioligand binding assay, human GABA A α5β3γ2 receptors in HEK293 cells
Conditions: HEK293 cells expressing human receptors (transiently transfected); 0.5 nM [3H]flumazenil; means of two determinations; read-out: hKi GABA Aα5
Description: The ability of compounds present invention to bind to GABA A receptor subtypes was determined by competition for [^3H]flumazenil (85 Ci/mmol; Roche) binding to HEK293 cells expressing rat (stably transfected) or human (transiently transfected) receptors of composition α1β2/3γ2, α2β3γ2, α3β3γ2 and α5β3γ2.
Cell pellets were suspended in Krebs-tris buffer (4.8 mM KCl, 1.2 mM CaCl2, 1.2 mM MgCl2, 120 mM NaCl, 15 mM Tris; pH 7.5; binding assay buffer), homogenized by polytron for ca. 20 sec on ice and centrifuged for 60 min at 4° C. (50000 g; Sorvall, rotor: SM24=20000 rpm). The cell pellets were resuspended in Krebs-tris buffer and homogenized by polytron for ca. 15 sec on ice. Protein was measured (Bradford method, Bio-Rad) and aliquots of 1 mL were prepared and stored at −80° C.
Assays were incubated to equilibrium for 1 hour at 4° C. and harvested onto GF/C uni-filters (Packard) by filtration using a Packard harvester and washing with ice-cold wash buffer (50 mM Tris; pH 7.5). After drying, filter-retained radioactivity was detected by liquid scintillation counting.
Ki values were calculated using Excel-Fit (Microsoft) and are the means of two determinations.
Representative test results, obtained by the above described assay measuring binding affinity to HEK293 cells expressing human (h) receptors, are shown in Table 1 below.

Structure (SMILES)	Ki [nM]
Cc1nnn(-c2ccc(F)cc2)c1COc1cc(C(=O)NN2CCOCC2)n(C)n1 [Example 4, 5-[3-(4-Fluoro-phenyl)-5-methyl-3H-[1,2,3]triazol-4-ylmethoxy]-2-methyl-2H-pyrazole-3-carboxylic acid morpholin-4-ylamide]	22.2
Cn1nc(OCc2c(-c3ccc(F)cc3)nnn2C)cc1C(=O)NC1CCOCC1 [Example 2, 5-[5-(4-Fluoro-phenyl)-3-methyl-3H-[1,2,3]triazol-4-ylmethoxy]-2-methyl-2H-pyrazole-3-carboxylic acid (tetrahydro-pyran-4-yl)-amide]	45.3
Cc1nnn(-c2ccc(F)cc2)c1COc1cc(C(=O)NC2CCOCC2)n(C)n1 [Example 3, 5-[3-(4-Fluoro-phenyl)-5-methyl-3H-[1,2,3]triazol-4-ylmethoxy]-2-methyl-2H-pyrazole-3-carboxylic acid (tetrahydro-pyran-4-yl)-amide]	15.7
Cn1nnc(-c2ccc(F)cc2)c1COc1cc(C(=O)NC2CCOCC2)on1 [Example 1, 3-[5-(4-Fluoro-phenyl)-3-methyl-3H-[1,2,3]triazol-4-ylmethoxyl]isoxazole-5-carboxylic acid (tetrahydro-pyran-4-yl)-amide]	28.8
Cc1nc(/C=C/c2c(C)nnn2-c2ccc(F)cc2)sc1C(=O)NC(C)C [Example 9, 2-{(E)-2-[3-(4-Fluoro-phenyl)-5-methyl-3H-[1,2,3]triazol-4-yl]-vinyl}-4-methyl-thiazole-5-carboxylic acid isopropylamide]	6.8

Other lines, results leading:

Ki [nM]	Structure (SMILES)
20.7	Cc1nc(/C=C/c2c(-c3ccccn3)nnn2C)sc1C(=O)NC(C)C [Example 10, 4-Methyl-2-[(E)-2-(3-methyl-5-pyridin-2-yl-3H-[1,2,3]triazol-4-yl)-vinyl]-thiazole-5-carboxylic acid isopropylamide]
43.2	Cc1nnn(-c2ccc(F)cc2)c1COc1cc(C(=O)NC2(C)COC2)n(C)n1 [Example 5, 5-[3-(4-Fluoro-phenyl)-5-methyl-3H-[1,2,3]triazol-4-ylmethoxy]-2-methyl-2H-pyrazole-3-carboxylic acid (3-methyl-oxetan-3-yl)-amide]
11.3	Cc1nc(/C=C/c2c(-c3ccc(F)cc3)nnn2C)sc1C(=O)NC(C)C [Example 6, 2-{(E)-2-[5-(4-Fluoro-phenyl)-3-methyl-3H-[1,2,3]triazol-4-yl]vinyl}-4-methyl-thiazole-5-carboxylic acid isopropylamide]

From patent publication US8697696B2, “Triazole compounds II” (Roche Palo Alto LLC, priority 2010, dated 2014)
